Experimental data: US20260375265A1, “COMPOSITION FOR ALLEVIATING SKIN PIGMENTATION” (LG H & H CO., LTD., priority 2023, published 2026)
Structures can show the parent of a compound that is named as a salt. Where two headings read alike, the source gives them in different places.

Legend:
PPARGC1B [1] = assay: qPCR of PPARGC1B mRNA expression in a-MSH-treated B16F10 cells; assay type: cell-based, mouse; conditions: B16F10, 10 nM a-MSH plus substance, one day, appropriate concentration; FIG. 3
Protocol: (§1) Screening was performed for substances that influence the expression of genes associated with spot pigmentation among various substances having the skin-improving efficacy. Changes in the expression of genes associated with spot pigmentation were examined in cells where melanin synthesis was increased by a-MSH, and substances that restored the expression to the level before a-MSH treatment were selected.
(§2) Mouse melanoma cells (B16F10; CRL-6475) were purchased from ATCC for use. The purchased cells were cultured in a 37 °C/5% CO2 incubator using a medium prepared by supplementing Dulbecco's Modified Eagle Medium (DMEM-GIBCO) with 10% fetal bovine serum (FBS) and 1% penicillin/streptomycin.
(§3) To analyze the efficacy on changes in the mRNA expression of genes associated with skin spot pigmentation, mouse melanoma cells were seeded at […] cells/well in 6-well plates and cultured in a 37 °C/5% CO2 incubator for one day. After replacing the medium with a fresh medium, 10 nM α-MSH was treated, and substances were added to the medium at appropriate concentrations and cultured for one day under the same conditions. Thereafter, total RNA was obtained using AccuPrep Universal RNA Extraction Kit (Bioneer, K-3140), and cDNA was synthesized using AccuPower® RocketScript™ Cycle (Bioneer, K-2202). The expression level of each gene was analyzed by performing qPCR using synthesized cDNA and taqman probe (assay ID: ASCL2-Mm01268891_m1, PPARGC1B-Mm00504730_m1, TP63-Hs00978349_m1).

TP63 = assay: qPCR of TP63 mRNA expression in UVB-irradiated HaCaT cells; assay type: cell-based, human; conditions: UVB 10 mJ/cm^2, appropriate concentration, FIG. 3, UVB alone increased
Protocol: as §1, §3
TP63 expression was increased by 10 mJ/cm^2 of UVB in human keratinocytes, HaCaT. […]

BNC2 = assay: qPCR of BNC2 mRNA expression in a-MSH-treated melanocytes (B16F10); assay type: cell-based, mouse; conditions: a-MSH 10 nM plus substance, 1 day, appropriate concentration; FIG. 2
Protocol: as §1, with “dark skin tone” for “spot pigmentation”, “having” for “having the”
as §2
(§4) To analyze the efficacy on changes in the mRNA expression of genes associated with dark skin tone, RT-qPCR experiment was conducted. Cells were cultured in a 37 °C/5% CO2 incubator for one day. To assess the change of KITLG expression by UVB, the medium of human keratinocytes (HaCaT) was replaced with PBS, and 30 mJ/cm^2 of UVB (312 nm) was irradiated using an RMX 3W (Vilber Lourmat) instrument. The medium was replaced with a fresh medium and cultured for one day. To assess the change in KITLG expression by treatment with substances, the cells were treated with appropriate concentrations of substances along with a fresh medium and cultured for one day. In addition, to assess the OCA2, BNC2, and RAB32 expression, melanocytes were treated with a-MSH (10 nM) and appropriate concentrations of substances in a fresh medium and cultured for 1 day. Thereafter, total RNA was obtained using AccuPrep Universal RNA Extraction Kit (Bioneer, K-3140), and cDNA was synthesized using AccuPower® RocketScript™ Cycle (Bioneer, K-2202). The expression level of each gene was analyzed by performing qPCR using synthesized cDNA and taqman probe (assay ID: OCA2-Mm00498969_m1, BNC2-Mm00556284_m1, RAB32-Mm00458960_m1, KITLG-Hs00241497_m1).

[2] = system: mouse melanoma cells and human keratinocytes; assay: Inhibition of melanin production increased by a-MSH (dark skin tone); assay type: cell-based; conditions: Keratinocyte, 48 h, a-MSH 10 nM, two days
Protocol: In detail, mouse melanoma cells and human keratinocytes were seeded at […] cells/well in 6-well plates and cultured in a 37 °C/5% CO2 incubator for one day, followed by treatment with 10 nM of a-MSH. Each of media comprising appropriate concentrations and combinations of substances was added and cultured again in a 37 °C/5% CO2 incubator for two days to determine whether the substances inhibited the melanin production increased by a-MSH. Cells attached to the plates were collected in PBS and centrifuged to obtain cell pellets. The cell pellets were visually inspected and photographed. The cell pellets were dissolved in a 1 N NaOH (sodium hydroxide) solution comprising 10% dimethyl sulfoxide (DMSO) at 80 °C for 10 minutes, and placed in a 96-well plate, and absorbance at 405 nm was measured using an Epoch (Biotek) instrument. Melanin was quantified using the measured absorbance and normalized to the sample protein concentration to determine melanin concentration. The inhibition rate of melanin production of the sample was calculated as a ratio of the melanin concentration of the sample treatment group with respect to the melanin concentration increased by a-MSH treatment.
E1=(X+Y)−(XY+XZ+YZ/100)+XYZ/10000 Colby equation
E2=X+Y−(XY/100) Colby equation

RAB11FIP2 = assay: qPCR of RAB11FIP2 mRNA expression in UVB-irradiated mouse melanoma cells; assay type: cell-based; conditions: B16F10, UVB 30 mJ/cm^2 (312 nm), substance one day, appropriate concentration; FIG. 1; UVB alone decreased
Protocol: as §1, with “scattered dark spots on skin” for “spot pigmentation”, “having” for “having the”, “UVB exposure,” for “a-MSH,”, “UVB exposure” for “a-MSH treatment”
as §2
(§5) To analyze the efficacy on changes in the mRNA expression of genes associated with scattered dark spots on skin, mouse melanoma cells were seeded at 2*10^5 cells/well in 6-well plates and cultured in a 37 °C/5% CO2 incubator for one day. After replacing the medium with PBS, 30 mJ/cm^2 of UVB (312 nm) was irradiated using an RMX 3W (Vilber Lourmat) instrument. Substances were added to the medium at appropriate concentrations and cultured for one day under the same conditions. […] The expression level of each gene was analyzed by performing qPCR using synthesized cDNA and taqman probe (assay ID: AKAP1-Mm00501539_m1, RAB11FIP2-Mm01261268_m1, PPARGC1B-Mm00504730_m1).

AKAP1 = assay: qPCR of AKAP1 mRNA expression in UVB-irradiated mouse melanoma cells; assay type: cell-based; conditions: B16F10, UVB 30 mJ/cm^2 (312 nm), substance one day, appropriate concentration; FIG. 1; UVB alone increased
Protocol: as §1, with “scattered dark spots on skin” for “spot pigmentation”, “having” for “having the”, “UVB exposure,” for “a-MSH,”, “UVB exposure” for “a-MSH treatment”
as §2, §5

OCA2 = assay: qPCR of OCA2 mRNA expression in a-MSH-treated melanocytes (B16F10); assay type: cell-based, mouse; conditions: a-MSH 10 nM plus substance, 1 day, appropriate concentration; FIG. 2
Protocol: as §1, with “dark skin tone” for “spot pigmentation”, “having” for “having the”
as §2, §4

RAB32 = assay: qPCR of RAB32 mRNA expression in a-MSH-treated melanocytes (B16F10); assay type: cell-based, mouse; conditions: a-MSH 10 nM plus substance, 1 day, appropriate concentration; FIG. 2
Protocol: as §1, with “dark skin tone” for “spot pigmentation”, “having” for “having the”
as §2, §4

PPARGC1B [3] = assay: qPCR of PPARGC1B mRNA expression in UVB-irradiated mouse melanoma cells; assay type: cell-based; conditions: B16F10, UVB 30 mJ/cm^2 (312 nm), substance one day, appropriate concentration; FIG. 1; UVB alone decreased
Protocol: as §1, with “scattered dark spots on skin” for “spot pigmentation”, “having” for “having the”, “UVB exposure,” for “a-MSH,”, “UVB exposure” for “a-MSH treatment”
as §2
To analyze the efficacy on changes in the mRNA expression of genes associated with scattered dark spots on skin, mouse melanoma cells were seeded at 2*10^5 cells/well in 6-well plates and cultured in a 37 °C/5% CO2 incubator for one day. After replacing the medium with PBS, 30 mJ/cm^2 of UVB (312 nm) was irradiated using an RMX 3W (Vilber Lourmat) instrument. Substances were added to the medium at appropriate concentrations and cultured for one day under the same conditions. Thereafter, total RNA was obtained using AccuPrep Universal RNA Extraction Kit (Bioneer, K-3140), and cDNA was synthesized using AccuPower® RocketScript Cycle (Bioneer, K-2202). The expression level of each gene was analyzed by performing qPCR using synthesized cDNA and taqman probe (assay ID: AKAP1-Mm00501539_m1, RAB11FIP2-Mm01261268_m1, PPARGC1B-Mm00504730_m1).

[4] = system: protein carbonylation of keratinocytes; assay: Protein carbonylation inhibition in UVA-irradiated human keratinocytes (HaCaT); assay type: cell-based; conditions: relative to UVA-only group, significant
Protocol: Previous studies have shown that skin dullness and yellowness are promoted by protein carbonylation of keratinocytes. Therefore, through a protein carbonylation assay, it was examined whether or not customized substances for dark skin tone may also improve skin dullness and yellowness.
Human keratinocytes (HaCaT) were seeded at 1×10^4 in black clear-bottom 96-well plates, and after 24 hours, treated with customized substances at appropriate concentrations. After another 24 hours, cells were irradiated with […] of UVA, washed with PBS, and then incubated with fluolescein-5-thiosemicabarzide in MES buffer for 1 hour at room temperature. After another washing with PBS, fluorescence was measured using a plate reader at an excitation of 492 nm and an emission of 562 nm. Furthermore, based on the UVA-only treatment group, the reduction in protein carbonylation by other effective substances was measured.

CCOC1=C(O)C(=O)O[C@@H]1[C@@H](O)CO [3-O-ethyl ascorbic acid]
change of PPARGC1B expression (PPARGC1B [1]): increased

O=C1O[C@H]([C@@H](O)CO)C(O)=C1O[C@H]1O[C@H](CO)[C@@H](O)[C@H](O)[C@H]1O [ascorbyl glucoside]
change of PPARGC1B expression (PPARGC1B [1]): increased

C[C@H]1[C@H](C)CC[C@]2(C(=O)O[C@@H]3O[C@H](CO[C@@H]4O[C@H](CO)[C@@H](O[C@@H]5O[C@@H](C)[C@H](O)[C@@H](O)[C@H]5O)[C@H](O)[C@H]4O)[C@@H](O)[C@H](O)[C@H]3O)CC[C@]3(C)C(=CC[C@@H]4[C@@]5(C)C[C@@H](O)[C@H](O)[C@@](C)(CO)[C@@H]5CC[C@]43C)[C@H]12 [asiaticoside]
change of TP63 expression (TP63): decreased

C=C[C@@](C)(/C=C/c1ccc(O)cc1)CCC=C(C)C [bakuchiol]
change of BNC2 expression (BNC2): decreasing | inhibition at 5 ppm ([2]; 5 ppm, FIG. 5, read-out: reduction of melanin production (Y, Z)): ~2.07%

CC(C)=CCC[C@](C)(O)[C@@H]1CC=C(C)CC1 [bisabolol, 6-methyl-2-(4-methylcyclohex-3-en-1-yl)hept-5-en-2-ol]
change of RAB11FIP2 expression (RAB11FIP2): increasing

NCCS [cysteamine HCl]
change of AKAP1 expression (AKAP1): decreasing

N[C@@H](CS)C(=O)O [cysteine]
change of AKAP1 expression (AKAP1): decreasing

COc1cc(/C=C/C(=O)O)ccc1O [ferulic acid, 4-hydroxy-3-methoxycinnamic acid]
change of OCA2 expression (OCA2): decreasing | change of BNC2 expression (BNC2): decreasing | change of RAB32 expression (RAB32): decreasing | inhibition at 10 ppm ([2]; 10 ppm, FIG. 5, read-out: reduction of melanin production (X)): ~5.04%

O=c1c(-c2ccc(O)cc2)coc2cc(O)cc(O)c12 [genistein]
change of OCA2 expression (OCA2): decreasing | change of BNC2 expression (BNC2): decreasing | change of RAB32 expression (RAB32): decreasing

O=C1O[C@H](CO)[C@@H](O)[C@H](O)[C@H]1O [gluconolactone, glucono-delta-lactone]
change of PPARGC1B expression (PPARGC1B [3]): increased

O=C(O)CO [glycolic acid]
change of PPARGC1B expression (PPARGC1B [3]): increased

CC(C)CCCCCCCCCCCCCCC(=O)O [isostearic acid]
change of OCA2 expression (OCA2): decreasing | inhibition at 50 ppm ([4]; Homo sapiens, light or radiation study, 50 ppm, FIG. 9, read-out: reduction in protein carbonylation): 31%

OC[C@H]1O[C@@H](Oc2cc(O)cc(/C=C/c3ccc(O)cc3)c2)[C@H](O)[C@@H](O)[C@@H]1O [polydatin, 3,4′,5-trihydroxystilbene-3-mono-D glucoside]
change of OCA2 expression (OCA2): decreasing | change of BNC2 expression (BNC2): decreasing | change of RAB32 expression (RAB32): decreasing | inhibition at 10 ppm ([2]; 10 ppm polydatin, FIG. 6, read-out: reduction of melanin production): ~23.8%

O=c1c(O)c(-c2ccc(O)c(O)c2)oc2cc(O)cc(O)c12 [quercetin]
change of OCA2 expression (OCA2): decreasing | change of RAB32 expression (RAB32): decreasing | inhibition at 20 ppm ([2]; 20 ppm quercetin, FIG. 6, read-out: reduction of melanin production): ~33.9%

CC(=O)C(=O)[O-].[Na+] [sodium pyruvate]
change of TP63 expression (TP63): decreased

NC[C@H]1CC[C@H](C(=O)O)CC1 [tranexamic acid, trans-4-(aminomethyl)cyclohexanecarboxylic acid, reference compound]
change of OCA2 expression (OCA2): decreasing

gamma oryzanol
change of OCA2 expression (OCA2): decreasing | change of RAB32 expression (RAB32): decreasing | reduction in protein carbonylation ([4]; 2.5 ppm, FIG. 9): 39%
